Entries after “also recorded” stand apart in the source; their conditions may differ.
Tests used:
[1] = system: circulating and splenic T cells and B cells; assay: Flow cytometry of alemtuzumab-mediated lymphocyte depletion in blood and spleen; assay type: in vivo, huCD52 Tg mice
Protocol: (§1) For splenocyte and lymph node cell preparations single-cell suspensions were generated from harvested mouse spleens or inguinal and mesenteric lymph nodes by homogenization between frosted glass slides into PBS containing 2% FCS. For splenocyte preparations, red blood cells were lysed by 1-2 minute incubation with a red blood cell lysis solution (BD Biosciences, San Diego, Calif.). Blood was isolated by retro-orbital bleeding and cell preparations were performed by lysing red blood cells with red blood cell lysing solution (BD Biosciences) for 20-30 minutes. For all tissue preparations, live cells were enumerated using the ViCell automated counter (Beckman Coulter, Fullerton, Calif.). Following isolation, all cell preparations were washed with PBS/2% FCS prior to use in the assays described below.
(§2) For evaluation of cell populations within different tissues, single cell suspensions of the tissues were incubated with fluorochrome-conjugated antibodies that included anti-mouse CD4, CD8, CD25, CD44, CD62L (all antibodies from BD Biosciences or eBioscience, San Diego, Calif.). Intracellular Foxp3 expression analysis was performed according to the anti-Foxp3 manufacturer's protocol (eBiosciences, San Diego, Calif.). Following incubation with the antibodies, cells were washed and analyzed by flow cytometry (FACSCanto, BD Biosciences and FCS Express software, De Novo Software, Los Angeles, Calif.).

[2] = system: anti-allograft antibodies; assay: Serum alloantibody levels (binding to allogeneic fibroblasts); assay type: in vivo, mice; conditions: day 21, allogeneic heart transplant
Protocol: Serum alloantibody levels were determined by incubating serum from cardiac transplanted or normal mice at 1:50 dilutions with an SV40 transformed C57BL/6 fibroblast line (SVB6) followed by detection of fibrobast bound antibodies (alloantibodies) using FITC rabbit anti-mouse IgG (Dako, Carpinteria, Calif.) and by flow cytometric analysis. Geometric mean fluorescent intensities of serum stained fibroblasts were divided by isotype control stained fibroblasts to normalize alloantibody levels between experiments.

[3] = system: anti-mATG antibody; assay: Anti-mATG titers in cardiac allograft transplant mice; assay type: in vivo; conditions: seven days following transplant, mice treated with methotrexate and mATG
Protocol: (§3) Polyclonal antibody mATG was administered as an intraperitoneal injection of 5 mg/kg every four weeks or as two 20 mg/kg doses given four days apart when in the transplant setting with the first dose given on the day of transplant (day 0).
The levels of anti-mATG IgG in mouse serum were analyzed by enzyme linked immunosorbent assay (ELISA). […] End-point titers were defined as the […] dilution that averages above an absorbance of 0.100 using Softmax software (Molecular Devices, Sunnyvale, Calif., USA).
C57BL/6 and BALB/c mice were obtained from Charles River (Kingston, N.Y. or Raleigh, N.C.) and used in these experiments between 8 and 13 weeks of age. The donor allogenic C57BL/6 mice were first anesthetized with an intraperitoneal injection of Ketamine (Fort Dodge Animal Health/Pfizer, Fort Dodge, Iowa) and Xylazine (Lloyd, Shenandoah, Iowa) and a median sternotomy was performed. […] The ascending aorta and pulmonary artery were then transected, the graft removed from the donor and the heart was stored in ice-cold saline until engraftment. A recipient mouse (Balb/c) was similarly anesthetized and prepped as described above for donor mice, except that the abdominal cavity was opened. […] Grafts were assessed by palpation 5-7 times per week for the first 30 day, and then 3-4 times per week until the end of the study.

[4] = system: cytokines (BAFF, TNF-alpha, MCP-1, IL-13, IL-6, IL-12); assay: Serum cytokine levels in alemtuzumab-treated mice; assay type: in vivo, huCD52 Tg mice
[5] = system: allogeneic heart transplant; assay: Murine allogeneic heart transplant model, graft survival; assay type: in vivo, mice (C57BL/6 donor, Balb/c recipient); conditions: treatment alone
Protocol: as §3
C57BL/6 and BALB/c mice were obtained from Charles River (Kingston, N.Y. or Raleigh, N.C.) and used in these experiments between 8 and 13 weeks of age. The donor allogenic C57BL/6 mice were first anesthetized with an intraperitoneal injection of Ketamine (Fort Dodge Animal Health/Pfizer, Fort Dodge, Iowa) and Xylazine (Lloyd, Shenandoah, Iowa) and a median sternotomy was performed. […] The ascending aorta and pulmonary artery were then transected, the graft removed from the donor and the heart was stored in ice-cold saline until engraftment. A recipient mouse (Balb/c) was similarly anesthetized and prepped as described above for donor mice, except that the abdominal cavity was opened. […] After hemostasis was confirmed, the abdominal muscle was closed with a running 5-O Vicryl suture (Ethicon, Johnson & Johnson, Somerville, N.J.), and the skin closed with running 5-0 Ethilon suture (Ethicon). Standard post-op pain assessment and management was performed. Grafts were assessed by palpation 5-7 times per week for the first 30 day, and then 3-4 times per week until the end of the study.

[6] = system: anti-rhGAA IgG; assay: Anti-rhGAA IgG ELISA titers in mice treated with rhGAA; assay type: in vivo; conditions: for anti-rhGAA titers: IL-10 knockout animals, rhGAA and methotrexate
Protocol: Recombinant human alglucosidase alfa (rhGAA, marketed by Genzyme Corp. as Myozyme®) was used as a formulated drug product. Mice were treated weekly with 20 mg/kg of rhGAA by bolus tail vein injection unless stated differently. All mice were treated prophylactically with 5 to 30 mg/kg diphenhydramine (Baxter Healthcare Corporation, Deerfield, Ill.) intraperitoneally prior to rhGAA administration. Control animals were treated intravenously with either sterile 0.9% saline or rhGAA-formulation buffer. Methotrexate treatment
Mice were bled 4-6 days following rhGAA treatment and specific IgG was measured by ELISA. […] Endpoint titers were defined as the reciprocal of the sample dilution resulting in an absorbance value of 0.2 using Softmax software (Molecular Devices, Sunnyvale, Calif.).
C57Bl/6 mice were treated with one 20 mg/kg intravenous dose of rhGAA (Genzyme Corporation), 3 consecutive intraperitoneal doses of 5 mg/kg methotrexate (APP Pharmaceuticals, LLC), and either 1D11 or 13C4 at 5 mg/kg (Genzyme Corporation) for 3 doses every other day. Methotrexate, 1D11, and 13C4 treatment commenced with rhGAA injections. Spleens were collected 7 days after treatment initiation and were processed as described above for B cells, culture and flow analysis. Additionally, rhGAA titer data was obtained by treating animals as described above, with rhGAA dosed weekly over 12 weeks, methotrexate dosed for either 1 or 3 cycles, and 1D11 or 13C4 dosed 3 times a week every other day for 12 weeks. Serum samples were collected every 2 weeks for ELISA analysis.

[7] = system: CD4+ and CD8+ T cells, T regulatory cells, B cells; assay: Flow cytometry of lymphocyte populations in mATG-treated mice; assay type: in vivo, C57BL/6 mice
Protocol: as §1, §2

[8] = Circulating mATG levels (mATG-specific IgG ELISA); assay type: in vivo, mice
Protocol: Mouse serum was determined by ELISA. […] Following blocking with 0.5% BSA (high purity), standard controls and serum samples were diluted as necessary and added in duplicate to the wells of the coated plates and incubated at 36-38° C. for 1 hour with gentle shaking. […] Final concentrations were interpolated off the standard curve. It was predetermined that the measurement of mATG-specific IgG by this method were only modestly affected by titers of anti-mATG IgG that were greater than 218,000.

CN(Cc1cnc2nc(N)nc(N)c2n1)c1ccc(C(=O)N[C@@H](CCC(=O)O)C(=O)O)cc1 [methotrexate, Methotrexate]
depletion of circulating T cells by fifth monthly dose of alemtuzumab ([1]; alemtuzumab alone, or with methotrexate 5 mg/kg daily for first three days): restored the ability of alemtuzumab to deplete T cells
splenic T cell populations ([1]; methotrexate-treated animals, one day following fifth alemtuzumab treatment): significantly depleted
splenic B cell populations, except follicular B cells ([1]; mice treated with alemtuzumab and methotrexate, after fifth alemtuzumab dose): not significantly depleted
effect on marginal zone B cells with alemtuzumab ([1]; spleen, two days following last day of methotrexate treatment): may enhance the depletion of marginal zone B cells
depletion of circulating B cells by fifth monthly dose of alemtuzumab ([1]; with methotrexate 5 mg/kg daily for first three days): enhance the depletion of B cells
anti-allograft antibody (alloantibody) levels [2]: significantly reduce; also recorded: significantly lower
anti-rabbit IgG antibody titers [3]: significantly lower
levels of pro-inflammatory cytokines MCP-1, IL-13, IL-6 and IL-12 ([4]; 24 hours after fifth alemtuzumab dose, methotrexate 5 mg/kg three days at first dose): decreased
TNF-alpha levels ([4]; methotrexate 2 mg/kg, one week after second cycle of alemtuzumab): statistically significant increase
BAFF levels ([4]; serum, 24 hours after 5th dose of alemtuzumab, with vs without methotrexate): no difference
average extended graft survival [5]: 20 days
anti-rhGAA responses ([6]; C57BL/6 wild-type, rhGAA and three cycles methotrexate, weeks 4, 6 and 9): decreased
anti-rhGAA titers ([6]; week 9): slight decrease
anti-rhGAA titers ([6]; weeks 4 and 6): not decreased
duration of control of anti-rhGAA responses ([6]; single cycle of three daily doses of 5 mg/kg methotrexate at week 1): at least 20 weeks
animals exhibiting high anti-rhGAA titers ([6]; week 6, rhGAA alone, rhGAA + methotrexate, or with 5 mg/kg 1D11 or 13C4): none
levels of circulating CD4+ and CD8+ T cells ([7]; after fifth monthly mATG treatment, mATG alone or with one cycle of methotrexate): significantly depleted
depletion of CD4+, CD8+, T regulatory T cells and total CD19+ B cells ([7]; methotrexate alone, animals receiving an allogeneic transplant): did not deplete
depletion of CD4+, CD8+, T regulatory T cells and total CD19+ B cells ([7]; normal animals, blood and spleen): does not deplete
percentage of T regulatory cells in spleen and blood ([7]; single cycle of methotrexate, after fifth monthly mATG treatment): enhanced the ability of mATG to increase the percentage of T regulatory cells
absolute number of activated follicular and activated transitional 3 B cells ([7]; spleen, single cycle of methotrexate, around fifth mATG dose): no statistically significant decreases
circulating mATG levels ([8]; heart transplant model, seven days after first mATG administration, mATG alone or with methotrexate): significantly higher
levels of circulating mATG ([8]; months 3 and 5 of monthly mATG, alone or with single cycle methotrexate 5 mg/kg x3): measurable levels
